Data set [1] concerns FLT3-ITD. Nature of the data set: KINOMEscan binding assay. How it is done: Binding to FLT3-ITD was determined using the KINOMEscan^TM assay (Eurofins DiscoverX Corporation, San Diego, CA, USA)
Kinase-tagged T7 phage strains were prepared in an E. coli host derived from the BL21 strain. E. coli were grown to log-phase and infected with T7 phage and incubated with shaking at 32 °C until lysis. The lysates were centrifuged and filtered to remove cell debris. The remaining kinases were produced in HEK-293 cells and subsequently tagged with DNA for qPCR detection. […] The liganded beads were blocked with excess biotin and washed with blocking buffer (SeaBlock (Pierce), 1% BSA, 0.05% Tween 20, 1 mM DTT) to remove unbound ligand and to reduce non-specific binding. […] The compounds were then diluted directly into the assays such that the final concentration of DMSO was 0.9%. All reactions performed in polypropylene 384-well plate. Each was a final volume of 0.02 mL. […] The kinase concentration in the eluates was measured by qPCR.

Another data set deals with MOLM-13 cells. Nature of the data set: Apoptosis by flow cytometry (annexin-V/propidium iodine). The conditions noted are these: 72 h. Format: cell-based, human. On the procedure: To further assess the biological relevance of these findings, we treated MV4-11 cells with the new PROTACs, included MA49 as control, and analyzed them for early (annexin-V positive) and late apoptosis (annexin-V and propidium iodine positive) by flow cytometry. Cells in late apoptosis are more severely damaged than cells in early apoptosis. […] After 72 h, all degraders evoked equal levels of apoptosis (Figure 4c). We additionally tested these degraders in MOLM-13 cells which carry FLT3-ITD and FLT3 from a patient with AML after initial myelodysplastic syndrome.
(§1) Figure 4 Biological and biochemical characterization of the FLT3 PROTACs. (a) MV4-11 cells were incubated for 24 h with 50 nM of the indicated compounds. Immunoblotting was performed for the indicated proteins and their phosphorylation (p-) or cleavage (cl.; indicated by arrows); β-actin was used to ensure equal sample loading. (b) MV4-11 cells were treated with the indicated agents and analyzed for early and late apoptosis by flow cytometry. (c) Same as in (b) but treatment for 72 h. (d) MOLM-13 cells were treated with the indicated agents and analyzed for early and late apoptosis by flow cytometry. […] Immunoblots show the expression of the indicated proteins and their phosphorylation (p-); β-actin was used to ensure equal sample loading. All immunoblots show data from at least two independent repetitions and flow cytometry analyses were conducted thrice independently; * […], ** p < 0.01, *** p < 0.001, **** p < 0.0001.

The nature of another data set: in vitro. The following applies: human, HEK293 cells.
The nature of data set [2]: Metabolic stability in liver microsomes. The conditions noted are these: for degraded after 2 h: mouse liver microsomes; for 10 min - compound remaining % / 20 min - compound remaining % / 30 min - compound remaining % / 60 min - compound remaining % / 120 min - compound remaining %: single runs A and B (Table S3). Background: Liver microsomes are vesicles of endoplasmic reticulum, rich in cytochrome P450 enzymes.

Another data set deals with HEK293 cells. As to the kind of experiment: Cytotoxicity in HEK293 cells (Alamar Blue). The conditions noted are these: 50 µM. For orientation: The colour change of resazurin is a common sign of viable cells or microbes.
For data set [3], the target named is T1, FLT3-ITD (Homo sapiens, UniProt P36888, INS600HVDFREYEYD).
T1 sequence (P36888 with tags, fused parts or gaps INS600HVDFREYEYD): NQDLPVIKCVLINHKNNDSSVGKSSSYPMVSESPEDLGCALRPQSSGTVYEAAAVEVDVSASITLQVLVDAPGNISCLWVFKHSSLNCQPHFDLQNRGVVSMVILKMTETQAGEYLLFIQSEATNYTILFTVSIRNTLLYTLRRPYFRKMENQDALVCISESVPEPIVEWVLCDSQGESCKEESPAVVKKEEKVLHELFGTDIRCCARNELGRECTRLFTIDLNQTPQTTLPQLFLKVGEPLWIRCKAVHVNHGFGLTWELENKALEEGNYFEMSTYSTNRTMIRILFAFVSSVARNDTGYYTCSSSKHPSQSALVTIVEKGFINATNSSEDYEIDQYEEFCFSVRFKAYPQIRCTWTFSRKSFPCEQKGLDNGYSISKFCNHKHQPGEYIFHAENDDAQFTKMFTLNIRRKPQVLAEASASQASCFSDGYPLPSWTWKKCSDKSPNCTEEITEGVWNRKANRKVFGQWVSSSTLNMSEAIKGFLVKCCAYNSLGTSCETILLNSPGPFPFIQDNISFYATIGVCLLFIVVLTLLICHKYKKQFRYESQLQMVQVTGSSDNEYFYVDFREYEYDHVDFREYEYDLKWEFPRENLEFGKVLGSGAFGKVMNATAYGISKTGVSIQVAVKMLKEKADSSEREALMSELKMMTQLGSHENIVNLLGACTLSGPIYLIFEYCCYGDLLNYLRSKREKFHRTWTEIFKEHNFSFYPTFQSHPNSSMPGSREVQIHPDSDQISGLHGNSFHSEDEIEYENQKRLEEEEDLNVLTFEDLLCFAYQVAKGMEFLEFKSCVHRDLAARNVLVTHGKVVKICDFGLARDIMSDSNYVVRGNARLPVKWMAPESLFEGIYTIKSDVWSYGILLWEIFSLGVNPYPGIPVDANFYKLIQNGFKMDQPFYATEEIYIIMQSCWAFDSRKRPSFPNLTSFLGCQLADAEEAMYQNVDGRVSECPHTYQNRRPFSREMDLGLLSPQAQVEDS
Nature of the data set: FLT3-ITD degradation, immunoblot in MV4-11 cells. The conditions noted are these: for inhibition at 0.05 µM: MV4-11, 24 h, read-out: % FLT3-ITD Degradation at 50 nM; for reduction/elimination of FLT3-ITD / FLT3-ITD degradation / FLT3-ITD (130 kDa) level relative to untreated cells: MV4-11 cells; for FLT3-ITD degradation / FLT3-ITD (130 kDa) level relative to untreated cells: 50 nM; for FLT3-ITD degradation: 24 h. In general terms: Immunoblotting shows a protein as a band on a membrane.

In data set [4] the test system is FLT3-ITD. As to the kind of experiment: FLT3-ITD degradation, immunoblot in MOLM-13 cells. It counts as cell-based, human. The following applies: 50 nM, 24 h.
Source text: To verify that MA190 and MA191 trigger the depletion of FLT3-ITD and a breakdown of its downstream signaling in both MV4-11 and MOLM-13 cells, we used immunoblotting. Furthermore, we evaluated if the elimination of FLT3-ITD is inherent to the PROTAC activities of MA190 and MA191, or due to their kinase inhibitor moieties using MA68. […] The loss of FLT3-ITD was linked to a reduction of STAT5 and AKT, their phosphorylation, and the auto-phosphorylation of FLT3-ITD in both AML cell systems (Figure 4f,g).
as §1

Where [5] appears, read: mouse (CD-1) liver microsomes, 25 μM.

A value given as a limit tells only on which side of the number the result lay.

In general, viability refers to the share of living cells, or the viability signal relative to a control. Read a low viability as a greater loss of cells. As for `Cc1ncsc1-c1ccc([C@H](C)NC(=O)[C@@H]2C[C@@H](O)CN2C(=O)[C@@H](NC(=O)CCOCCOCCOCCNC(=O)c2cc(Oc3ccc(NC(=O)Nc4cc(C(C)(C)C)on4)cc3)ccn2)C(C)(C)C)cc1` [MA49, reference compound], in the data set on FLT3-ITD [1], the “% FLT3-ITD Binding at 1 µM” value came to 91 ± 2%. Also, in the data set on MOLM-13 cells, the “induction of late apoptosis” value is “most potent inducers of late apoptosis”. The molecule further had a viability at 24 h, 50 µM in “in vitro” of 2.9 ± 0.3%. For the same molecule, in data set [2] (setting [5]), the “20 min—Compound Remaining %” value amounted to 52.9 ± 2.1%, the “30 min—Compound Remaining %” value was found to be 37.2 ± 0.6% and the “60 min—Compound Remaining %” value came to 28.8 ± 2.9%. The “degraded after 2 h” value in data set [2] was 85.0%. Moreover, in data set [2] (listed as MA49_B), the “10 min - compound remaining %” value came out at 71%, the “20 min - compound remaining %” value is reported as 57%, the “30 min - compound remaining %” value was found to be 38% and the “60 min - compound remaining %” value was 35%. In data set [2] (120 min, listed as MA49_B), the “120 min - compound remaining %” value worked out at 10%. In addition, in the data set on HEK293 cells, the “cytotoxic effects” value is “showed cytotoxic effects”. In addition, on FLT3-ITD [3], the inhibition at 0.05 µM came to 80% and the “reduction/elimination of FLT3-ITD” value is 80%.

For the molecule `CNC(=O)c1cc(Oc2ccc(NC(=O)Nc3cc(C(C)(C)C)on3)cc2)ccn1` [MA68, reference compound], the “FLT3-ITD degradation” value in the data set on FLT3-ITD [4] was “but not their underlying kinase inhibitor MA68, eliminate FLT3-ITD”; at FLT3-ITD [3], “but not their underlying kinase inhibitor MA68, eliminate FLT3-ITD”. Further, the viability at 24 h, 50 µM in the data set “in vitro” was found to be 11.5 ± 2.2%. The “cytotoxic effects” value in the data set on HEK293 cells is “showed cytotoxic effects”.

Turning to `Cc1ncsc1-c1ccc([C@H](C)NC(=O)[C@@H]2C[C@@H](O)CN2C(=O)[C@@H](NC(=O)[C@H]2CC[C@H](C(=O)N3CCC(CCNC(=O)c4cc(Oc5ccc(NC(=O)Nc6cc(C(C)(C)C)on6)cc5)ccn4)CC3)CC2)C(C)(C)C)cc1` [MA190, 4-(4-(3-(5-(tert-Butyl)isoxazol-3-yl)ureido)phenoxy)-N-(2-(1-(trans-4-(((S)-1-((2S,4R)-4-hydroxy-2-(((S)-1-(4-(4-methylthiazol-5-yl)phenyl)ethyl)carbamoyl)pyrrolidin-1-yl)-3,3-dimethyl-1-oxobutan-2-yl)carbamoyl)cyclohexanecarbonyl)piperidin-4-yl)ethyl)picolinamide], the “% FLT3-ITD Binding at 1 µM” value in the data set with FLT3-ITD [1] came out at 71 ± 1%. Moreover, the “induction of late apoptosis” value in the data set with MOLM-13 cells was “most potent inducers of late apoptosis”. The “FLT3-ITD degradation” value in the data set on FLT3-ITD [4] is recorded as “eliminate FLT3-ITD”. Further, the viability at 24 h, 50 µM in the data set “in vitro” stood at 99.1 ± 3.1%. In addition, in data set [2] (setting [5]), the “10 min—Compound Remaining %” value is on record as 91.5 ± 0.4%, the “20 min—Compound Remaining %” value worked out at 88.5 ± 1.2% and the “30 min—Compound Remaining %” value came out at 93.9 ± 0.6%. The “degraded after 2 h” value in data set [2] is reported as 8.0%. In data set [2] (listed as MA190_B), the “20 min - compound remaining %” value amounted to 87% and the “30 min - compound remaining %” value stood at 93%. In addition, the “120 min - compound remaining %” value in data set [2] (120 min, listed as MA190_B) is 93%. Moreover, in the data set with HEK293 cells, the “cytotoxic effects” value is recorded as “no cytotoxic effects”. Further, on FLT3-ITD [3], the inhibition at 0.05 µM was found to be 95%, the “reduction/elimination of FLT3-ITD” value is given as greater than 95%, the “FLT3-ITD (130 kDa) level relative to untreated cells” value came out at 5% and the “FLT3-ITD degradation” value is “eliminate FLT3-ITD”.

As for `Cc1ncsc1-c1ccc([C@H](C)NC(=O)[C@@H]2C[C@@H](O)CN2C(=O)[C@@H](NC(=O)[C@H]2CC[C@H](C(=O)N3CCN(CCNC(=O)c4cc(Oc5ccc(NC(=O)Nc6cc(C(C)(C)C)on6)cc5)ccn4)CC3)CC2)C(C)(C)C)cc1` [MA191, 4-(4-(3-(5-(tert-Butyl)isoxazol-3-yl)ureido)phenoxy)-N-(2-(4-(trans-4-(((S)-1-((2S,4R)-4-hydroxy-2-(((S)-1-(4-(4-methylthiazol-5-yl)phenyl)ethyl)carbamoyl)pyrrolidin-1-yl)-3,3-dimethyl-1-oxobutan-2-yl)carbamoyl)cyclohexanecarbonyl)piperazin-1-yl)ethyl)picolinamide], in the data set on FLT3-ITD [1], the “% FLT3-ITD Binding at 1 µM” value worked out at 88 ± 2%. In addition, in the data set with MOLM-13 cells, the “induction of late apoptosis” value was “most potent inducers of late apoptosis”. The “FLT3-ITD degradation” value in the data set on FLT3-ITD [4] is “eliminate FLT3-ITD”. In the data set “in vitro”, this molecule came in with a viability at 24 h, 50 µM of 86.9 ± 5.8%. In data set [2] (setting [5]), the “10 min—Compound Remaining %” value was 98.2 ± 0.9%, the “20 min—Compound Remaining %” value was 97.0 ± 1.0%, the “30 min—Compound Remaining %” value was 95.0 ± 1.2% and the “60 min—Compound Remaining %” value came out at 91.2 ± 1.8%. Also, the “120 min—Compound Remaining %” value in data set [2] (mouse (CD-1) liver microsomes, 25 μM, 120 min) was 89.2 ± 1.0%. Also, the “degraded after 2 h” value in data set [2] is 10.8%. For the same molecule, in data set [2] (listed as MA191_B), the “10 min - compound remaining %” value came out at 97%, the “20 min - compound remaining %” value stood at 98% and the “60 min - compound remaining %” value is on record as 89%. Besides, the “120 min - compound remaining %” value in data set [2] (120 min, listed as MA191_B) was determined as 88%. The “cytotoxic effects” value in the data set with HEK293 cells is listed as “no cytotoxic effects”. In addition, on FLT3-ITD [3], the inhibition at 0.05 µM was 95%, the “reduction/elimination of FLT3-ITD” value is on record as greater than 95%, the “FLT3-ITD (130 kDa) level relative to untreated cells” value was determined as 5% and the “FLT3-ITD degradation” value is “eliminate FLT3-ITD”.

The values are drawn from PMC13210772, “Dual FLT3/MAPK14 Proteolysis-Targeting Chimera (PROTAC) Induces Potent Acute Myeloid Leukemia Cell Death” (Pharmaceuticals, 2026).
